Data taken from patent US20160120915A1, “METHODS FOR MANIPULATING IMMUNE RESPONSES BY ALTERING MICROBIOTA” (NEW YORK UNIVERSITY, priority 2013, published 2016).
Where a name gives a salt, the structure may show the parent alone.

How the values were obtained:
ileal tissue structure = experiment: Ileal atrophy scoring in H&E stained ileum; format: in vivo, C57BL/6J mice; details: 4-week old mice, n=5 each, p<0.05 Mann-Whitney U, vs control
Source text: Atrophy was scored in hematoxylin and eosin (H&E) stained ileum samples from 4-week old control and STAT mice (n=5 each).
Ileal tissues from 4-week-old control and STAT mice were formalin fixed and paraffin embedded, cut, and stained with hemotoxylin and eosin (H&E). 4 slides were scored for ileal atrophy per mouse and the average score per mouse was averaged.

ileal tissue = experiment: Ileal gene expression profiling by whole genome microarray, 8-week EarlySTAT; format: in vivo, C57BL/6J mice
Description: Ileal gene expression profiling of STAT, PAT, and control animal groups, was performed using the Affymetrix Genechip system (Affymetrix). Total RNA quality and quantity were determined using the Agilent 2100 Bioanalyser and Nanodrop ND-1000. Total RNA (100 ng) was used to prepare cDNA following the Affymetrix […] Express Kit labelling protocol (Affymetrix). Standardized array processing procedures recommended by Affymetrix were performed, including hybridization, fluidics processing and scanning of the Affymetrix MG-430 2.0 arrays. GeneSpring GX11 software (Agilent Technologies) was used to normalize the raw data (Affymetrix CEL files) by Robust Multichip Average algorithm (RMA).
997 reproducibly regulated genes were identified from ˜45,000 genes of the mouse genome by T-test (p<0.05) and fold change (≧1.2 or ≦0.8) in 8-week STAT mice (FIG. 8). DAVID analysis was performed using the regulated genes, and Gene Set Enrichment analysis (GSEA) was performed using whole gene data.

[1] = system: CD3+CD4+ lamina propria lymphocytes; experiment: Flow cytometry of lamina propria lymphocytes for Th17-produced cytokines, 8-week STAT; format: in vivo, C57BL/6J mice; details: small and large intestine, STAT vs control
Source text: Lamina propria lymphocytes (LPL) from both small and large intestine were isolated from 8-week STAT mice (Control n=4, STAT n=4) and analyzed for intracellular, Th17-produced cytokines by flow cytometry. Plots gated on CD3+CD4+LPL. IL-17^+ and IL-22^+ cells were decreased in STAT compared to control mice in both the small and large intestine (FIG. 5).
Small and large intestines of mice were dissected, and all mesenteric fat and Peyer's patches were removed. Intestines were fileted for removal of stool, cut into 2 cm pieces, and washed with PBS. Tissues were transferred to tubes with 10 ml 1 mM DTT/PBS, shaken at RT for 10 minutes, and transferred to tubes with 30 mM EDTA and 10 mM HEPES in PBS. Intestines were then shaken at 37° C. for 20 minutes and washed in complete RPMI. The small and large intestines were digested at 37 C for 1.5 hours in 100 units/ml collagenase Type VIII (Sigma) and 150 μg/ml DNase (Sigma) in complete RPMI. Cells were filtered through a 50 micron filter, washed with 5 ml PBS, and pelleted. Cells were then resuspended in 40% Percoll (GE Healthcare), under-layed with 80% Percoll, and centrifuged at 2,200 rpm for 20 min at RT. […]
Cells were stimulated with phorbol 12-myristate 13-acetate (PMA) and ionomycin for 4 hours at 37 C with the addition of GolgiPlug (BD). […] Cells were acquired on an LSRII (BD) and analyzed with FlowJo (Tree Star, Inc.) software.

terminal ileum = experiment: NOD: ileal gene expression profiling by microarray; format: in vivo, NOD mice; details: for differentially regulated genes that were down: PAT vs Control
Description: Ileal gene expression profiling of 6-week control, STAT, and PAT animal groups, was performed using the Affymetrix Genechip system (Affymetrix, Santa Clara Calif.). Total RNA quality and quantity were determined using the Nanodrop ND-1000, agarose gel, and Agilent 2100 Bioanalyser. Total RNA (100 ng) was used to prepare cDNA following the Affymetrix 3′IVT Express Kit labeling protocol (Affymetrix). Standardized array processing procedures recommended by Affymetrix were performed, including hybridization, fluidics processing and scanning of the Affymetrix Mouse Genome 430 2.0 Array chips. The affy package in R was used to normalize the raw data (Affymetrix CEL files) by Robust Multichip Average (RMA) algorithm. Then the limma package was used to identify regulated genes between groups and generate lists of differentially expressed genes using linear models and empirical Bayes method with an FDR-adjusted p-value cut-off of p<0.05 (Smyth, 2004, Statistical Applications in Genetics and Molecular Biology 3, No. 1, Article 3).
RNA was extracted from the terminal ileum of the 6-week old NOD mice. Raw probe intensities were normalized by the Robust Multichip Average (RMA) algorithm using affy package in R and then the limma package was used to identify regulated genes using linear models and empirical Bayes method with an FDR-adjusted p-value cut off of p<0.05 (Smyth 2004, Statistical Applications in Genetics and Molecular Biology 3, No. 1, Article 3.).

[2] = terminal ileum, NOD male mice, microarray
[3] = terminal ileum, NOD male mice, microarray, probe with greatest fold change

## CC1(C)S[C@@H]2[C@H](NC(=O)COc3ccccc3)C(=O)N2[C@H]1C(=O)[O-].[K+] [STAT, penicillin VK]
Ileal tissue structure
  ileal atrophy: significantly more
Ileal tissue; 8-week STAT mice, T-test p<0.05 and fold change ≧1.2 or ≦0.8
  reproducibly regulated genes out of ~45,000 genes of the mouse genome: 997
Ileal tissue; 8-week, STAT vs control
  SAA1 expression in ileal tissue (microarray/GSEA): strong down-regulation
[1]
  IL-17+ cells among CD3+CD4+ LPL: decreased
  IL-22+ cells among CD3+CD4+ LPL: decreased

## CC[C@H]1OC(=O)C[C@@H](O)[C@H](C)[C@@H](O[C@@H]2O[C@H](C)[C@@H](O[C@H]3C[C@@](C)(O)[C@@H](O)[C@H](C)O3)[C@H](N(C)C)[C@H]2O)[C@@H](CC=O)C[C@@H](C)C(=O)/C=C/C(C)=C/[C@@H]1CO[C@@H]1O[C@H](C)[C@@H](O)[C@@H](OC)[C@H]1OC [Tylosin, Tylosin tartrate]
Terminal ileum; NOD females
  differentially regulated genes that were down: 42.1%
Terminal ileum; NOD males
  differentially regulated genes that were down: 69.3%
Terminal ileum; [2]
  log2 fold change (PAT/control), Arl5b: 2.42
  log2 fold change (PAT/control), Bhmt: −1.52
  log2 fold change (PAT/control), Ccl20: −0.86
  log2 fold change (PAT/control), Clec2d: −0.65
  log2 fold change (PAT/control), Dio1: −1.34
  log2 fold change (PAT/control), Dusp14: 2.22
  log2 fold change (PAT/control), Edn2: −1.67
  log2 fold change (PAT/control), Ereg: 1.73
  log2 fold change (PAT/control), G6pc: −2.85
  log2 fold change (PAT/control), Gjb3: 0.77
  log2 fold change (PAT/control), Gzma: −1.48
  log2 fold change (PAT/control), Il1rn: 1.70
  log2 fold change (PAT/control), Il17rd: −0.58
  log2 fold change (PAT/control), Irf1: −1.14
  log2 fold change (PAT/control), Maff: 2.22
  log2 fold change (PAT/control), Phlda1: 1.96
  log2 fold change (PAT/control), S100a14: 1.00
  log2 fold change (PAT/control), Saa1: −4.00
  log2 fold change (PAT/control), Saa2: −1.44
  log2 fold change (PAT/control), Tifa: −1.32
  log2 fold change (PAT/control), Tppp: −1.35
Terminal ileum; [3]
  log2 fold change (PAT/control), Acsl3: 1.59
  log2 fold change (PAT/control), Ccl28: −0.64
  log2 fold change (PAT/control), Cd38: −1.02
  log2 fold change (PAT/control), Chka: 1.97
  log2 fold change (PAT/control), Flrt3: 2.56
  log2 fold change (PAT/control), Il1rl1: 1.64
  log2 fold change (PAT/control), Klf4: 0.86
  log2 fold change (PAT/control), Slc2a1: 1.26
  log2 fold change (PAT/control), Socs2: −0.77
  log2 fold change (PAT/control), Tnfrsf12a: 1.72
  log2 fold change (PAT/control), Tnfsf10: −1.46
  log2 fold change (PAT/control), Zfand2a: 2.11
Terminal ileum; terminal ileum, PAT-treated NOD male mice, 6-week, microarray
  log2 fold change (PAT/control), Rab30: 4.27
Terminal ileum; terminal ileum, PAT-treated NOD male mice, microarray
  log2 fold change (PAT/control), Areg: 3.94
